Consider 21 molecules from US6380194B1 (Janssen Pharmaceutica N.V., priority 1996, dated 2002).

The nature of data set [1]: Cytotoxicity in mock-infected MT-4 cells (MTT). Conditions: human. The protocol:
(§1) A rapid, sensitive and automated assay procedure was used for the in vitro evaluation of anti-HIV agents. An […] T4-cell line, MT-4, which was previously shown (Koyanagi et al., Int. J. Cancer, 36, 445-451, 1985) to be highly susceptible to and permissive for HIV infection, served as the target cell line. Inhibition of the HIV-induced cytopathic effect was used as the end point. The viability of both HIV- and mock-infected cells was assessed spectrophotometrically via the in situ reduction of 3-(4,5-dimethylthiazol-2-yl)-2,5-diphenyltetrazolium bromide (MTT). The 50% cytotoxic concentration (CC50 in μM) was defined as the concentration of compound that reduced the absorbance of the mock-infected control sample by 50%. The percent protection achieved by the compound in HIV-infected cells was calculated by the following formula: [formula]
(§2) whereby (ODT)HIV is the optical density measured with a given concentration of the test compound in HIV-infected cells; (ODC)HIV is the optical density measured for the control untreated HIV-infected cells; (ODC)MOCK is the optical density measured for the control untreated mock-infected cells; all optical density values were determined at 540 nm. The dose achieving 50% protection according to the above formula was defined as the 50% inhibitory concentration (IC50 in μM). The ratio of CC50 to IC50 was defined as the selectivity index (SI).

A further data set concerns HIV-1. Kind of data set: Inhibition of HIV-induced cytopathic effect in MT-4 cells (MTT). The format is cell-based. Conditions: dose achieving 50% protection of HIV-infected MT-4 cells, mean, number of experiments in brackets. How it is done:
as §1, §2

In another data set the test system is mock-infected MT-4 cells. In words: Cytotoxicity in mock-infected MT-4 cells (MTT). How it is done: as §1, §2
Where [2] appears, read: Human immunodeficiency virus 1, MT4.

SMILES strings stand for the structures.

As a reminder, the CC50 is the concentration that lowers cell viability or growth by half. The molecule `N#Cc1ccc(Nc2nc(N)nc(Cc3c(Cl)ccc4[nH]ccc34)n2)cc1` [Compound 8, 4-[[4-amino-6-[(5-chloro-1H-indol-4-yl)methyl]-1,3,5-triazin-2-yl]amino]benzonitrile] had a CC50 in data set [1] (mock-infected MT-4 cells) of 14.4 µM.

The molecule `CN(C)C=Nc1nc(Cc2c(Cl)cccc2Cl)nc(Nc2ccc(C#N)cc2)n1` [Compound 62, 4-[[4-[(2,6-dichlorophenyl)methyl]-6-[[(dimethylamino)methylene]amino]-1,3,5-triazin-2-yl]amino]benzonitrile] yielded a CC50 in data set [1] (mock-infected MT-4 cells) of more than 100 µM. In turn, `NC(=O)c1ccc(Nc2nc(N)nc(Cc3c(Cl)ccc4[nH]ccc34)n2)cc1` [Compound 9, 4-[[4-amino-6-[(5-chloro-1H-indol-4-yl)methyl]-1,3,5-triazin-2-yl]amino]benzamide] returned a CC50 in data set [1] (mock-infected MT-4 cells) of 54.4 µM. This counts as double-digit micromolar. For the molecule `N#Cc1ccc(Nc2nc(Cc3c(Cl)cccc3Cl)nc(NCC(=O)O)n2)cc1` [Compound 16, N-[4-[(4-cyanophenyl)amino]-6-[(2,6-dichlorophenyl)methyl]-1,3,5-triazin-2-yl]glycine], the CC50 in data set [1] (mock-infected MT-4 cells) worked out at 79.9 µM. Still for that read-out and setting: then `N#Cc1ccc(Nc2nc(Cc3c(Cl)cccc3Cl)nc(NO)n2)cc1` [Compound 33, 4-[[4-[(2,6-dichlorophenyl)methyl]-6-(hydroxyamino)-1,3,5-triazin-2-yl]amino]benzonitrile], with 14.1 µM. What is called IC50 is the midpoint of a concentration-inhibition curve. A high value points to lower potency. In the data set with HIV-1 (setting [2]), `N#Cc1ccc(Nc2nc(Cc3c(Cl)cccc3Cl)nc(NCC(O)CO)n2)cc1` (racemic) [Compound 26, (±)-4-[[4-[(2,6-dichlorophenyl)methyl]-6-[(2,3-dihydroxypropyl)amino]-1,3,5-triazin-2-yl]amino]benzonitrile] had an IC50 of 0.068 µM. In addition, the cytotoxic concentration (CC50) in data set [1] (mock-infected MT-4 cells) is 59.7 µM. `N#Cc1ccc(Nc2nc(N)nc(C(CC3CC3)c3c(Cl)cccc3Cl)n2)cc1` (racemic) [Compound 61] registered an IC50 in the data set on HIV-1 of 6.9 µM. In the data set on mock-infected MT-4 cells, the half-maximal cytotoxic concentration (CC50) came to 53.4 µM.

In turn, `CC(C)NC(=O)Nc1nc(Cc2c(Cl)cccc2Cl)nc(Nc2ccc(C#N)cc2)n1` [Compound 6, N-[4-[(4-cyanophenyl)amino]-6-[(2,6-dichlorophenyl)methyl]-1,3,5-triazin-2-yl]-N′-(1-methylethyl)urea] came in with a cytotoxic concentration (CC50) in data set [1] (mock-infected MT-4 cells) of more than 100 µM.

For `N#Cc1ccc(Nc2nc(N)nc(Cc3c(Cl)cccc3Cl)n2)cc1` [Compound 1, 4-[[4-amino-6-[(2,6-dichlorophenyl)methyl]-1,3,5-triazin-2-yl]amino]benzonitrile], the half-maximal cytotoxic concentration (CC50) in data set [1] (mock-infected MT-4 cells) was more than 100 µM. Take `N#Cc1ccc(Nc2nc(Cc3c(Cl)cccc3Cl)nc(NCCCNC(N)=O)n2)cc1` [Compound 23, N-[3-[[4-[(4-cyanophenyl)amino]-6-[(2,6-dichlorophenyl)methyl]-1,3,5-triazin-2-yl]amino]propyl]urea]: in data set [1] (mock-infected MT-4 cells), it took 36.7 µM to reach half-maximal cytotoxicity (CC50). In turn, `N#Cc1ccc(Nc2nc(Cc3c(Cl)cccc3Cl)nc(NC(CCO)C(N)=O)n2)cc1` (racemic) [Compound 34, (±)-2-[[4-[(4-cyanophenyl)amino]-6-[(2,6-dichlorophenyl)amino]-6-[(2,6-dichlorophenyl)methyl]-1,3,5-triazin-2-yl]amino-4-hydroxybutanamide] showed an IC50 in the data set on HIV-1 of 0.057 µM. In addition, the CC50 in the data set on mock-infected MT-4 cells was found to be 42.3 µM. In the case of `COC(=O)CN(c1ccc(C#N)cc1)c1nc(N)nc(Cc2c(Cl)cccc2Cl)n1` [Compound 39], in the data set with HIV-1 (setting [2]), the concentration for half-maximal inhibition (IC50) stood at 0.078 µM. The same molecule had a cytotoxic concentration (CC50) in data set [1] of more than 20 µM. Consider `CN(C)c1nc(Cc2c(Cl)cccc2Cl)nc(N(c2ccc(C#N)cc2)c2ccc(C#N)cc2)n1` [Compound 38, 4,4′-[[4-[(2,6-dichlorophenyl)methyl]-6-(dimethylamino)-1,3,5-triazin-2-yl]imino]bisbenzonitrile], for which, in data set [1] (mock-infected MT-4 cells), the CC50 was more than 100 µM. In data set [1] (mock-infected MT-4 cells), `N#Cc1ccc(Nc2nc(Cc3c(Cl)cccc3Cl)nc(NCC(N)=O)n2)cc1` [Compound 14, [N-[4-[(4-cyanophenyl)amino]-6-[(2,6-dichlorophenyl)methyl]-1,3,5-triazin-2-yl]]aminoacetamide] registered a CC50 of 9.1 µM. In turn, `CN(C)CCNc1nc(Cc2c(Cl)cccc2Cl)nc(Nc2ccc(C#N)cc2)n1` [Compound 29] yielded an IC50 with HIV-1 of 0.05 µM. That is a double-digit nanomolar value. As to `CCOc1cccc(Cc2nc(N)nc(Nc3ccc(C#N)cc3)n2)c1` [Compound 48], the half-inhibitory concentration (IC50) in the data set on HIV-1 came out at 0.074 µM. In addition, the CC50 in the data set on mock-infected MT-4 cells is more than 20 µM. Turning to `CC(=O)Nc1nc(Cc2c(Cl)cccc2Cl)nc(Nc2ccc(C#N)cc2)n1` [Compound 22, N-[4-[(4-cyanophenyl)amino]-6-[(2,6-dichlorophenyl)methyl]-1,3,5-triazin-2-yl]-acetamide], the half-maximal cytotoxic concentration (CC50) in data set [1] (mock-infected MT-4 cells) was more than 100 µM. Regarding `N#Cc1ccc(Nc2nc(Cc3c(Cl)cccc3Cl)nc(NN)n2)cc1` [Compound 15, 4-[[4-[(2,6-dichlorophenyl)methyl]-6-hydrazino-1,3,5-triazin-2yl]amino]benzonitrile], half-maximal cytotoxicity in data set [1] (mock-infected MT-4 cells) (CC50) was put at 44.6 µM. Turning to `COc1cccc(Cc2nc(N)nc(Nc3ccc(C#N)cc3)n2)c1` [Compound 47], in the data set with HIV-1, the half-inhibitory concentration (IC50) was 0.082 µM. The molecule also had a CC50 with mock-infected MT-4 cells of more than 20 µM. In the data set with HIV-1, `CC(=N)Nc1nc(Cc2c(Cl)cccc2Cl)nc(Nc2ccc(C#N)cc2)n1` [Compound 28] showed an IC50 of 0.003 µM. In the data set on mock-infected MT-4 cells, the CC50 was more than 100 µM. For `N#Cc1ccc(Nc2nc(Cc3c(Cl)cccc3Cl)nc(NC(=N)N)n2)cc1` [Compound 20, N-[4-[(4-cyanophenyl)amino]-6-[(2,6-dichlorophenyl)methyl]-1,3,5-triazin-2-yl]-guanidine], the CC50 in data set [1] (mock-infected MT-4 cells) stood at 4.3 µM. That is a single-digit micromolar value.
